The source made the active and inactive calls. The calls are words filed in the database; no cut-off is given here.
Tests used:
[1] = target: T1, NAD-dependent protein deacetylase (Schistosoma mansoni, UniProt T1VXA1); test: Inhibition of recombinant Schistosoma mansoni sirtuin 2 (21 to 322 residues) expressed in Escherichia coli BL21(DE3) cells using ZMAL as substrate after 1 hr in presence of NAD+ by homogeneous fluorescence based analysis
T1 sequence (T1VXA1 whole entry): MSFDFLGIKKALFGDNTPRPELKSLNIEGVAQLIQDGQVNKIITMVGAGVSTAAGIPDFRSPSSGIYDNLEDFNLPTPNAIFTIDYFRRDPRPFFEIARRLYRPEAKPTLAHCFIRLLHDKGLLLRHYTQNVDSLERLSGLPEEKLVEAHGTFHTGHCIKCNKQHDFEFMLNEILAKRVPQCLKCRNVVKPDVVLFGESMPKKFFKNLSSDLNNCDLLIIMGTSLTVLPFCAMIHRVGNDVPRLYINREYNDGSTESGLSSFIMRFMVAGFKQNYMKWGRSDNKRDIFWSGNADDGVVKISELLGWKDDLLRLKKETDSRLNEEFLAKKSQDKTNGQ

[2] = target: T2, NAD-dependent protein deacetylase sirtuin-2 (Homo sapiens, UniProt Q8IXJ6); test: Inhibition of N-terminal His6 tagged human sirtuin 2 (25 to 389 residues) at 25 uM using Cbz-Lys(acetyl)-AMC as substrate after 4 hrs in presence of NAD+ by homogeneous fluorescence based analysis relative to control
T2 sequence (Q8IXJ6 whole entry): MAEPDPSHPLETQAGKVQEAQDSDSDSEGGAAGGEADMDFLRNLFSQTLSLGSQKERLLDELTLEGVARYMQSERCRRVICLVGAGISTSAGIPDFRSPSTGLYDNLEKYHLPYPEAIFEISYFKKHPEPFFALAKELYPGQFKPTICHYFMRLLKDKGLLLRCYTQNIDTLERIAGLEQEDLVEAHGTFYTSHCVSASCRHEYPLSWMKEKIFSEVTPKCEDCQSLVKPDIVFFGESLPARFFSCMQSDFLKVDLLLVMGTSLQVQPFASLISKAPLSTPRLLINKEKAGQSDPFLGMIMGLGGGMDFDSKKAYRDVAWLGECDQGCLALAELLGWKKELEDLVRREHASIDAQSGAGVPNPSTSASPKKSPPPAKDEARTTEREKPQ

[3] = target: T3, NAD-dependent protein deacetylase (Schistosoma mansoni) (UniProt T1VXA1); test: Inhibition of recombinant Schistosoma mansoni sirtuin 2 (21 to 322 residues) expressed in Escherichia coli BL21(DE3) cells at 25 uM using ZMAL as susbtrate after 1 hr in presence of NAD+ by homogeneous fluorescence based analysis relative to control
T3 sequence (whole entry): T1 sequence (T1VXA1 whole entry)

[4] = target: T4, NAD-dependent protein deacetylase sirtuin-1 (Homo sapiens, UniProt Q96EB6); test: Inhibition of human sirtuin 1 at 25 uM relative to control
T4 sequence (Q96EB6 whole entry): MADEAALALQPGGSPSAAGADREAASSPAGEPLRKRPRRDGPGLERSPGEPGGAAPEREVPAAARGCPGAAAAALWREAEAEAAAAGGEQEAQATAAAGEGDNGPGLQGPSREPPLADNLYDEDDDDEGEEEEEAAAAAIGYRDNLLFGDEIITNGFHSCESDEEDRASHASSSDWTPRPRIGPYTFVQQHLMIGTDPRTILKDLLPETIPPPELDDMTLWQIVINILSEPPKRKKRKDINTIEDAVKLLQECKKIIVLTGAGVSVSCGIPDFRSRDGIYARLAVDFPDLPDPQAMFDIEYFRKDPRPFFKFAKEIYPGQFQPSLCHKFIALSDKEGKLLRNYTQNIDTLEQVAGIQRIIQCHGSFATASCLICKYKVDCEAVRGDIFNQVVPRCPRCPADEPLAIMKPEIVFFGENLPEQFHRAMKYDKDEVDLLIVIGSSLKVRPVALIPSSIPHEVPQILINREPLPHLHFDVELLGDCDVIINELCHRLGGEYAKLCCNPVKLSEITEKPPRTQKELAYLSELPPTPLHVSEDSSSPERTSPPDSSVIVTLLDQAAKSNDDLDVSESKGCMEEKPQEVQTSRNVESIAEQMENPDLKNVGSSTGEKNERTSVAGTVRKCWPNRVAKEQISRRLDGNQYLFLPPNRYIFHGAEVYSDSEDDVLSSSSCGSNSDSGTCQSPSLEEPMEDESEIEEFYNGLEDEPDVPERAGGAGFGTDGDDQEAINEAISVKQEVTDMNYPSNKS

[5] = target: T5, NAD-dependent protein deacetylase sirtuin-3, mitochondrial (Homo sapiens, UniProt Q9NTG7); test: Inhibition of human sirtuin 3 at 25 uM relative to control
T5 sequence (Q9NTG7 whole entry): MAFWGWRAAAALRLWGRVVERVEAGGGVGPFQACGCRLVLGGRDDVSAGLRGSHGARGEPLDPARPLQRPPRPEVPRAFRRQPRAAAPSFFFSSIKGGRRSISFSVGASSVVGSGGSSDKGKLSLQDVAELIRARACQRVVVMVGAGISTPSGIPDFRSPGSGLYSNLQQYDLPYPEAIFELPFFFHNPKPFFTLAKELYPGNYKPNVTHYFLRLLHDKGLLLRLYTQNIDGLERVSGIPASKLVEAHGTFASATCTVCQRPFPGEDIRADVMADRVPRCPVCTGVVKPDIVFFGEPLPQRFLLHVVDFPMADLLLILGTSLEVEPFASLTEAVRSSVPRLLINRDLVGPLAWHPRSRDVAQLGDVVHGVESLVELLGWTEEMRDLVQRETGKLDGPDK

[6] = system: Schistosoma mansoni; test: Antiparasitic activity against Schistosoma mansoni Puerto Rico assessed as reduction in parasite viability at 10 to 20 uM after 72 hrs by microscopic analysis; format: functional, organism-based
[7] = system: Schistosoma mansoni; test: Antiparasitic activity against adult Schistosoma mansoni Puerto Rico assessed as reduction in worm pairing at 10 to 20 uM after 24 hrs by microscopic analysis; format: functional, organism-based
[8] = system: Schistosoma mansoni; test: Antiparasitic activity against adult Schistosoma mansoni Puerto Rico assessed as reduction in egg laying at 10 to 20 uM after 24 hrs by microscopic analysis; format: functional, organism-based
[9] = system: HL-60; test: Cytotoxicity against human HL60 cells at 10 uM after 72 hrs by Cell titer MTS dye based analysis; conditions: hl-60, 72 h
[10] = target: T2, NAD-dependent protein deacetylase sirtuin-2; test: Inhibition of N-terminal His6 tagged human sirtuin 2 (25 to 389 residues) using Cbz-Lys(acetyl)-AMC as substrate after 4 hrs in presence of NAD+ by homogeneous fluorescence based analysis

| Compound | IC50 [1] [µM] | inhibition at 25 µM [2] [%] | inhibition [3] [%] | also measured |
| --- | --- | --- | --- | --- |
| COc1ccc(Oc2ccc(C(C(C)C)N(C)c3ncc4c(N)nc(N)nc4n3)cc2)cc1 (configuration not stated) | 27.7 | 57.4 |  |  |
| COc1ccc(Nc2ccc(C(C)N(C)c3ncc4c(N)nc(N)nc4n3)cc2)cc1 (configuration not stated) | 65.1 | 40.8 |  |  |
| CNC(C)c1ccc(Oc2ccccc2)cc1 (configuration not stated) |  | < 15 | < 15 |  |
| COc1ccc(Oc2ccc(CN(C)c3ncc4c(N)nc(N)nc4n3)cc2)cc1 |  | < 15 | < 15 | inhibition at 25 µM [4]: < 15%; inhibition at 25 µM [5]: < 15%; inhibition [6]: Active; inhibition [7]: Active; inhibition [8]: Active; Activity [9]: Toxic |
| Nc1nc(N)c2cnc(NC3CCN(Cc4ccccc4)CC3)nc2n1 |  | 23.2 | < 15 |  |
| CC(c1ccc(-c2ccccc2)cc1)N(C)c1ncc2c(N)nc(N)nc2n1 (configuration not stated) |  | < 15 | 24.8 |  |
| CCC(c1ccc(Oc2ccc(OC)cc2)cc1)N(C)c1ncc2c(N)nc(N)nc2n1 (configuration not stated) | 12.8 |  |  | IC50 [10]: 36.7 µM |
| COc1ccc(COc2ccc(C(C)N(C)c3ncc4c(N)nc(N)nc4n3)cc2)cc1 (configuration not stated) |  | 61.7 | 46.2 | inhibition at 25 µM [4]: < 15%; inhibition at 25 µM [5]: < 15%; inhibition [6]: Active; inhibition [7]: Active; inhibition [8]: Active; Activity [9]: Toxic |
| CC(c1ccc(Oc2ccc(OC(F)(F)F)cc2)cc1)N(C)c1ncc2c(N)nc(N)nc2n1 (configuration not stated) |  | 37.5 | 20.3 |  |
| COc1ccc(Oc2ccc(C(C)N(C)c3ncc4c(N)nc(N)nc4n3)cc2)c2ccccc12 (configuration not stated) |  | 30.6 | 18.4 |  |
| CC(Nc1ncc2c(N)nc(N)nc2n1)c1ccccc1 (configuration not stated) |  | < 15 | < 15 |  |
| CC(=O)Nc1ccc(-c2noc(CC3CCCN(Cc4cccc(F)c4C)C3)n2)cc1 (configuration not stated) | 14 to 14.5 |  |  | IC50 [10]: 3.6 to 8 µM |
| CN(Cc1ccccc1)c1ncc2c(N)nc(N)nc2n1 |  | < 15 | < 15 |  |
| COc1ccc(Oc2ccc(CN(C)c3ncc(C#N)c(N)n3)cc2)cc1 |  | < 15 | < 15 |  |
| Nc1nc(N)c2cnc(N3CCN(c4ccccc4)CC3)nc2n1 |  | < 15 | < 15 |  |
| Nc1nc(N)c2cnc(N3CCc4ccccc4C3)nc2n1 |  | < 15 | < 15 |  |
| COc1ccc(C(C)N(C)c2ncc3c(N)nc(N)nc3n2)cc1 (configuration not stated) |  | < 15 | < 15 |  |

| Compound | IC50 [1] [µM] | inhibition at 25 µM [2] [%] | inhibition [3] [%] | also measured |
| --- | --- | --- | --- | --- |
| Nc1ncc2c(N)nc(N)nc2n1 |  | < 15 | < 15 |  |
| COc1ccc(Oc2ccc(C(c3ccccc3)N(C)c3ncc4c(N)nc(N)nc4n3)cc2)cc1 (configuration not stated) | 2.34 | 22.1 |  | Imax [3]: 60%; inhibition [6]: Active; inhibition [7]: Active; inhibition [8]: Active; Activity [9]: Non-Toxic |
| COc1ccc(CNc2ncc3c(N)nc(N)nc3n2)cc1 |  | < 15 | < 15 |  |
| COc1cc(OC)cc(Oc2ccc(C(C)N(C)c3ncc4c(N)nc(N)nc4n3)cc2)c1 (configuration not stated) | 12.5 | 7.4 |  | inhibition [6]: Active; inhibition [7]: Active; inhibition [8]: Active; Activity [9]: Non-Toxic |
| CC(c1ccccc1)N(C)c1ncc2c(N)nc(N)nc2n1 (configuration not stated) |  | < 15 | < 15 |  |
| COc1cccc(Oc2ccc(C(C)N(C)c3ncc4c(N)nc(N)nc4n3)cc2)c1 (configuration not stated) | 23.1 | 33.8 |  |  |
| CCCCCCCC(=O)Nc1ccc(-c2noc(CC3CCCN(Cc4cccc(F)c4C)C3)n2)cc1 (configuration not stated) |  | < 15 | 30.5 |  |
| COc1cc(Oc2ccc(C(C)N(C)c3ncc4c(N)nc(N)nc4n3)cc2)cc(OC)c1OC (configuration not stated) | 30.8 | 29.2 |  |  |
| CC1CCCCN1c1ncc2c(N)nc(N)nc2n1 (configuration not stated) |  | < 15 | < 15 |  |
| CCCCCCCCCC(=O)Nc1ccc(-c2noc(CC3CCCN(Cc4cccc(F)c4C)C3)n2)cc1 (configuration not stated) |  | < 15 | < 15 |  |
| COc1ccc(Sc2ccc(C(C)N(C)c3ncc4c(N)nc(N)nc4n3)cc2)cc1 (configuration not stated) | 14.9 |  |  | IC50 [10]: 13.3 µM |
| CC(c1ccc(Oc2ccc(OCc3ccccc3)cc2)cc1)N(C)c1ncc2c(N)nc(N)nc2n1 (configuration not stated) |  | 70.4 | 40.3 |  |
| COc1ccc(Oc2ccc(C(C)N(C)c3ncc4c(N)nc(N)nc4n3)cc2)cc1OC (configuration not stated) | 44.7 | 35.3 |  |  |
| CC(c1ccc(Oc2ccccc2)cc1)N(C)c1ncc2c(N)nc(N)nc2n1 (configuration not stated) |  | < 15 | 27.6 |  |
| COc1ccc(Oc2ccc(C(C)Nc3ncc4c(N)nc(N)nc4n3)cc2)cc1 (configuration not stated) |  | 21 | 37.5 |  |
| COC1=C(OC)C(=O)C(CCCCCCCCCCO)=C(C)C1=O [IDEBENONE] | 1.9 |  |  | IC50 [10]: 15.4 µM |
